System: A1847 parental and CARM1 knockout cells
Assay: Epigenetic targeting small molecule set screen (14-day colony formation)
Format: cell-based, Human
Conditions: A1847 parental vs CARM1 knockout; 14 days; normalized to vehicle
Method: FIG. 26 illustrates that CARM1-expressing cells are selectively sensitized to EZH2 inhibitors. Equal number of parental control or CARM1 knockout […] cells were plated and treated with each of the 23 individual epigenetic inhibitors for 14 days. The media with the inhibitors was refreshed every 3 days. Cell growth was quantified as integrated density using NIH Image J software. Quantification of the average integrated density graphed as a scatter plot. The X-axis indicates the relative growth of treated CARM1 high parental […] cells compared with DMSO vehicle controls. Y-axis indicates the relative growth of treated CARM1 knockout […] cells compared with DMSO vehicle controls. n=4; and error bars represents SEM. FIG. 27 illustrates a table of EZH2 inhibitors that are selective against CARM1 expression. CARM1-high parental controls and CARM1 knockout […] cells were treated with the indicated concentration of the small molecules in a 14-day colony formation assay. Integrated density for each well was calculated using NIH Image J software. The relative growth of the indicated cells was determined by normalizing to the vehicle control treated cells. n=4 and p-value was calculated using a two-tailed t-test. FIG. 28 illustrates representative images of colonies formed by the cells treated with the indicated inhibitors. GSK126 and UNC1999 representative positive hits from the screen. […] parental and CARM1 knockout cells were plated in 24-well plates and treated with 24 epigenetic compounds. Cell medium was changed every three days with appropriate drug doses for 14 days or until control wells became confluent. Colonies were washed twice with PBS and fixed with 10% methanol and 10% acetic acid in distilled water. Fixed colonies were stained with 0.005% crystal violet. Integrated density was measured using NIH ImageJ software as a surrogate for cell growth.

| SMILES | selective growth suppression of CARM1-expressing versus CARM1 KO cells |
| --- | --- |
| CC(=O)Nc1ccc(C(=O)Nc2ccccc2N)cc1 [CI994] | equally effective in suppressing the growth of both CARM-expressing and KO cells |
| CCCc1cc(C)[nH]c(=O)c1CNC(=O)c1cc(-c2ccc(N3CCN(C(C)C)CC3)nc2)cc2c1cnn2C(C)C [UNC1999, 1-isopropyl-6-(6-(4-isopropylpiperazin-1-yl)pyridin-3-yl)-N-((6-methyl-2-oxo-4-propyl-1,2-dihydropyridin-3-yl)methyl)-1H-indazole-4-carboxamide] | showed selectivity against CARM1-expressing cells |
